Reference: article PMC6979384, “Characterization of the plant homeodomain (PHD) reader family for their histone tail interactions” (Epigenetics & Chromatin, 2020)

Columns and labels:
Test in all cases: Histone peptide microarray
Assay type in all cases: binding, human
CHD5 (PCC) = settings: CHD5 (PCC); sheet "Array Heatmap"; each array performed twice, total n = 4
Method in brief: (§1)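 Using an optimized microarray protocol, purified GST-tagged PHD fingers were incubated at 0.5 μM on 293 histone peptides with single or multiple modifications, and array signal was recorded as the average of 4 replicates.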

DPF2 (PPC2W2) = settings: DPF2 (PPC2W2); sheet "Array Heatmap"; each array performed twice, total n = 4
Method in brief: as §1

CHD4 (PPCC) = settings: CHD4 (PPCC); sheet "Array Heatmap"; each array performed twice, total n = 4
Method in brief: as §1

TAF3 = settings: TAF3; sheet "Array Heatmap"; each array performed twice, total n = 4
Method in brief: as §1

PHF2 = settings: PHF2; sheet "Array Heatmap"; each array performed twice, total n = 4
Method in brief: as §1

ING1 = settings: ING1; sheet "Array Heatmap"; each array performed twice, total n = 4
Method in brief: as §1

PHF13 = settings: PHF13; sheet "Array Heatmap"; each array performed twice, total n = 4
Method in brief: as §1

KDM5A (3) = settings: KDM5A (3); sheet "Array Heatmap"; each array performed twice, total n = 4
Method in brief: as §1

MLL5 = settings: MLL5; sheet "Array Heatmap"; each array performed twice, total n = 4
Method in brief: as §1

KDM5B (3) = settings: KDM5B (3); sheet "Array Heatmap"; each array performed twice, total n = 4
Method in brief: as §1

CHD5 (PPCC) = settings: CHD5 (PPCC); sheet "Array Heatmap"; each array performed twice, total n = 4
Method in brief: as §1

KDM7A = settings: KDM7A; sheet "Array Heatmap"; each array performed twice, total n = 4
Method in brief: as §1

PHF21A = settings: PHF21A; sheet "Array Heatmap"; each array performed twice, total n = 4
Method in brief: as §1

MORC3 (CW) = settings: MORC3 (CW); sheet "Array Heatmap"; each array performed twice, total n = 4
Method in brief: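 Binding read as mean relative signal from 4 replicates; microarray held 293 synthetic histone peptides with single or combinatorial PTMs. Each GST-tagged PHD reader was applied at 0.5 μM using the optimized Petell protocol.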

KDM4C (TTP) = settings: KDM4C (TTP); sheet "Array Heatmap"; each array performed twice, total n = 4
Method in brief: as §1

ING2 = settings: ING2; sheet "Array Heatmap"; each array performed twice, total n = 4
Method in brief: as §1

BPTF (PB) = settings: BPTF (PB); sheet "Array Heatmap"; each array performed twice, total n = 4
Method in brief: as §1

TRIM66 (PB) = settings: TRIM66 (PB); sheet "Array Heatmap"; each array performed twice, total n = 4
Method in brief: as §1

PHF23 = settings: PHF23; sheet "Array Heatmap"; each array performed twice, total n = 4
Method in brief: as §1

AIRE (PP) = settings: AIRE (PP); sheet "Array Heatmap"; each array performed twice, total n = 4
Method in brief: as §1

ING5 = settings: ING5; sheet "Array Heatmap"; each array performed twice, total n = 4
Method in brief: as §1

RAG2 = settings: RAG2; sheet "Array Heatmap"; each array performed twice, total n = 4
Method in brief: as §1

SP140L = settings: SP140L; sheet "Array Heatmap"; each array performed twice, total n = 4
Method in brief: as §1

ING3 = settings: ING3; sheet "Array Heatmap"; each array performed twice, total n = 4
Method in brief: as §1

PHRF1 (RP) = settings: PHRF1 (RP); sheet "Array Heatmap"; each array performed twice, total n = 4
Method in brief: as §1

PHF8 = settings: PHF8; sheet "Array Heatmap"; each array performed twice, total n = 4
Method in brief: as §1

KDM5A (1) = settings: KDM5A (1); sheet "Array Heatmap"; each array performed twice, total n = 4
Method in brief: as §1

BAZ2B = settings: BAZ2B; sheet "Array Heatmap"; each array performed twice, total n = 4
Method in brief: as §1

KDM5B (1) = settings: KDM5B (1); sheet "Array Heatmap"; each array performed twice, total n = 4
Method in brief: as §1

ING4 = settings: ING4; sheet "Array Heatmap"; each array performed twice, total n = 4
Method in brief: as §1

DIDO1 = settings: DIDO1; sheet "Array Heatmap"; each array performed twice, total n = 4
Method in brief: as §1

With “H2A (10-25): H2A 10-25 (ARAKAKTRSSRAGLQF; UniProt P0C0S8 11-26, looked up, fragment)” the “Array Heatmap value (peptide array signal)” value (“Array Heatmap value” for short) (CHD5 (PCC)) was 0.8105, the “Array Heatmap value” value (DPF2 (PPC2W2)) was 0.6893 and the “Array Heatmap value” value (CHD4 (PPCC)) was 0.556. The “Array Heatmap value” value (TAF3) was 0.2598, the “Array Heatmap value” value (PHF2) was 0.4378 and the “Array Heatmap value” value (ING1) was 0.5431. For the same substance, the “Array Heatmap value” value (PHF13) was 0.6145, the “Array Heatmap value” value (KDM5A (3)) was 0.4414 and the “Array Heatmap value” value (MLL5) was 0.5534. For the same substance, the “Array Heatmap value” value (KDM5B (3)) was 0.4449, the “Array Heatmap value” value (CHD5 (PPCC)) was 0.5571 and the “Array Heatmap value” value (KDM7A) was 0.3832. For the same substance, the “Array Heatmap value” value (PHF21A) was 0.4834, the “Array Heatmap value” value (MORC3 (CW)) was 0.3714 and the “Array Heatmap value” value (KDM4C (TTP)) was 0.5121. The “Array Heatmap value” value (ING2) was 0.647, the “Array Heatmap value” value (BPTF (PB)) was 0.3546 and the “Array Heatmap value” value (TRIM66 (PB)) was 0.5591. The “Array Heatmap value” value (PHF23) was 0.5294, the “Array Heatmap value” value (AIRE (PP)) was 0.4997 and the “Array Heatmap value” value (ING5) was 0.3701. For the same substance, the “Array Heatmap value” value (RAG2) was 0.2471, the “Array Heatmap value” value (SP140L) was 0.3704 and the “Array Heatmap value” value (ING3) was 0.4796. The “Array Heatmap value” value (PHRF1 (RP)) was 0.4431, the “Array Heatmap value” value (PHF8) was 0.3624 and the “Array Heatmap value” value (KDM5A (1)) was 0.4831. For the same substance, the “Array Heatmap value” value (BAZ2B) was 0.4876, the “Array Heatmap value” value (KDM5B (1)) was 0.668 and the “Array Heatmap value” value (ING4) was 0.4661. For the same substance, the “Array Heatmap value” value (DIDO1) was 0.6569.
